# US20220047545A1 (priority 2020, published 2022)
# Legend:
# [1] = target: RBD of SARS-CoV-2 spike protein binding to hACE2 receptor (Severe acute respiratory syndrome coronavirus 2, UniProt P0DTC2)
# [2] = system: A549 cells expressing eGFP spike protein fusing with hACE2-overexpressing A549 cells; assay type: cell-based, human; conditions: 25 μg/ml, 4 h
# [3] = target: T1, cellular hACE2 in hACE2/A549 cells (Homo sapiens, UniProt Q9BYF1); assay: Cellular hACE2 activity assay; conditions: cell-based
# T1 construct: host or cells: A549 (human alveolar epithelial) stably overexpressing hACE2
# T1 sequence (Q9BYF1 18-805): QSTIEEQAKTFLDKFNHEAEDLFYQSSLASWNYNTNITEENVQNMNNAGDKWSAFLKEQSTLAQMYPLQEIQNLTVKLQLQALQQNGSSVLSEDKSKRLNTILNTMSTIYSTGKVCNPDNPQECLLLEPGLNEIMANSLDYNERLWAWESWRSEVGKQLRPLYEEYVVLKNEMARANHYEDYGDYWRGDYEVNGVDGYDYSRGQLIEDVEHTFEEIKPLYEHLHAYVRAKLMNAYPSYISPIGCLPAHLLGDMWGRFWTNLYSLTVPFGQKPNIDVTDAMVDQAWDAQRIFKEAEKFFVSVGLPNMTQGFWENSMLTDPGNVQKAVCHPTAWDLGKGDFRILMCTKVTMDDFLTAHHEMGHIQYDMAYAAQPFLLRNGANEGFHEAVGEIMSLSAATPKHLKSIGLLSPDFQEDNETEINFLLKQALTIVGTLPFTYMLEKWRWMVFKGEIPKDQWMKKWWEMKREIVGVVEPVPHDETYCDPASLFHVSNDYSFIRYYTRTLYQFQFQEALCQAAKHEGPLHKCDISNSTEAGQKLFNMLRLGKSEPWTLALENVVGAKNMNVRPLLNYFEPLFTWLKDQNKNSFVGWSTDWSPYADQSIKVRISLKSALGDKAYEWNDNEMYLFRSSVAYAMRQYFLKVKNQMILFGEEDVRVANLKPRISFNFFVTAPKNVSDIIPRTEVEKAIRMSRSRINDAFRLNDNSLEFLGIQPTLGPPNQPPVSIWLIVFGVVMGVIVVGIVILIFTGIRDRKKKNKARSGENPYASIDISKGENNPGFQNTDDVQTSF
# Description: ACE2 activity assays: To determine the inhibitory effect of selected polyphenols on the activity of cellular hACE2 protein, hACE2/A549 cells were seeded in 48-well plates and allowed to adhere for 24 h or until reaching 99-100% of confluence. […] (Dnp)-OH. Finally, the plates were incubated at 37° C. for 1 h, and the fluorescence signal was measured at Ex/Em=320/405 nm wavelength with a spectrofluorometer (Tecan Group Ltd, Switzerland). […] Results are expressed as a percentage of polyphenol-free control (mean+/−SD, n=6).
# recombinant hTMPRSS2 = target: T2, recombinant hTMPRSS2 (Homo sapiens, UniProt O15393); assay: Recombinant TMPRSS2 activity assay (cell-free); assay type: biochemical; conditions: 10-25 μg/ml, 3 h treatment
# T2 construct: purchased Creative BioMart
# T2 sequence (O15393 whole entry): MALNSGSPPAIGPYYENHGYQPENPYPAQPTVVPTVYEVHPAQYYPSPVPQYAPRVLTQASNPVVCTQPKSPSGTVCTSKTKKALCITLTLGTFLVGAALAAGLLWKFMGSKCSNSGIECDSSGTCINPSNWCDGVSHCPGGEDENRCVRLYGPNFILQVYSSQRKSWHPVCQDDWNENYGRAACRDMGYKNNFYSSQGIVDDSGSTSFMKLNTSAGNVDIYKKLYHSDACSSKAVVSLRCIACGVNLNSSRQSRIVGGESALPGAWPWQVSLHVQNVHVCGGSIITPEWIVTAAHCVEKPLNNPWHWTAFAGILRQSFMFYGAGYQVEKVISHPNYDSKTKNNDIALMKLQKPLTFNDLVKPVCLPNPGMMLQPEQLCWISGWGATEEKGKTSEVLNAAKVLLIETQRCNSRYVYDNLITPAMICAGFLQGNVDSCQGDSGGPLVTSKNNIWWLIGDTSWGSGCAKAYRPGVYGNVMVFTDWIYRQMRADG
# Description: To this reaction 10 μM of TMPRSS2 enzyme in assay buffer (50 mM Tris pH=8, 150 mM NaCl) was added. Following 1 h incubation at RT, detection of fluorescent signal was performed using a spectrofluorometer at Ex/Em=360/440 nm wavelength (Tecan Group Ltd, Switzerland). The positive control was 100 μM camostat mesylate. […] Results are expressed as a percentage of polyphenol-free control (mean+/−SD, n=6).
# Fluorescence was assessed using a spectrofluorometer at extension/emission=360/440 nm (Tecan Group Ltd., Switzerland). The positive control was 100 μM camostat mesylate.
# [4] = target: T3, human recombinant cathepsin L (Homo sapiens, UniProt P07711); assay: Cathepsin L activity, purified/recombinant enzyme (cell-free); assay type: biochemical
# T3 construct: purchased BPS Bioscience
# T3 sequence (P07711 114-333): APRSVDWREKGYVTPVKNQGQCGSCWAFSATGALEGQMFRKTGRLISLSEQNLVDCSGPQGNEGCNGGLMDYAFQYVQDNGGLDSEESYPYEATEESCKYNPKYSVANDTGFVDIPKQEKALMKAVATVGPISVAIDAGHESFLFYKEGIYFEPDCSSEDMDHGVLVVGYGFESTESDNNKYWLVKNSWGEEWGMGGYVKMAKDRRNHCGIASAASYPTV
# Description: Positive control contained only cathepsin L, and negative control containing cathepsin L and cathepsin L inhibitor E64d (25 μM). The fluorescence was recorded at extension/emission=360/480 nm with a fluorescence spectrometer (Tecan Group Ltd., Switzerland).
# [5] = target: T4, cathepsin L in A549 cells (Homo sapiens, UniProt P07711); assay: Cellular cathepsin L activity (lysates of treated A549 cells); assay type: cell-based; conditions: 25 μg/ml, not significant
# T4 construct: A549 cells were seeded in 6-well plates; endogenous in cells; host or cells: A549 (ATCC)
# T4 sequence (P07711 114-333): as above
# Description: Cathepsin L activity assays: Cellular cathepsin L activity assays were performed utilizing a Cathepsin L Activity Assay Kit (Abcam, Cambridge, Mass.) according to the manufacturer's protocol. […] The samples were then centrifuged for 2 min. at 4° C. to remove any insoluble material. Supernatants were collected and transferred to clean tubes that were kept on ice. […] The plates were incubated at 37° C. for 1 h and fluorescence signal was measure at Ex/Em=400/505 nm wavelength with a spectrofluorometer (Tecan Group Ltd, Switzerland). […] Results are expressed as a percentage of polyphenol-free control (mean+/−SD, n=6).
# Cathepsin L activity assay and its cellular expression: Cathepsin L activity: Experiment was performed in cell lysates using a Cathepsin L Activity Assay Kit (Abcam, Cambridge, Mass.) according to the manufacturer's protocol. […] After 3 minutes of centrifuged for at 4° C., supernatants were collected and enzymatic reaction was set up by mixing 50 μl of treated sample, 50 μl of control sample, 50 μl of background control sample, 50 μl of positive and negative controls. […] Samples were incubated at 37° C. for 1 hour, and fluorescence was recorded at extension/emission=400/505 nm with a fluorescence spectrometer (Tecan Group Ltd., Switzerland).
# [6] = system: cathepsin L expression in A549 cells; assay: Cathepsin L expression in A549 cells (Western blot); assay type: cell-based, human; conditions: for cathepsin L expression at protein level: A549 cells
# Description: Proteins (50 μg/well) were separated on 8-16% gradient SDS-PAGE gels and transferred to a PVDF membrane. […] Images were captured with Azure™ cSeries digital imaging system (Azure Biosystems, Dublin, Calif.) with auto-exposure settings. Densitometry was performed with NIH ImageJ software.
# Cathepsin L expression: Expression of cathepsin L in cells was performed using Western blot. Briefly, 48 hours prior to the analysis, A549 cells were treated with PB at 5.0, and 10 μg/ml concentrations. Next, cells were washed with 1×PBS, lysed, and processed according to procedure described below.
# Western blot: […] cells were lysed with lysis buffer [RIPA buffer plus 1× Protease Inhibitor (ThermoFisher Scientific, Waltham, Mass.)]. The protein estimation was performed with Dc Protein Assay (Bio-Rad, Hercules, Calif.). A 45 μg/well of protein was separated on 8-16% gradient SDS-PAGE gels and transferred to a PVDF membrane. Detection was performed with antibodies against cathepsin L at 1:200 dilution (Santa Cruz Biotechnology, Santa Cruz, Calif.) and against β-actin at 1:1000 dilution (Cell Signaling, Danvers, Mass.).
# hACE2 [7] = target: T5, hACE2 (Homo sapiens, UniProt Q9BYF1); assay: ACE2 binding assay (ACE2 Inhibitor Screening Assay Kit); parameters: purchased BPS Bioscience
# T5 sequence (Q9BYF1 18-805): as the sequence (Q9BYF1 18-805) above
# hACE2 [8] = target: T5, hACE2; assay: Recombinant hACE2 activity assay (cell-free); assay type: biochemical; parameters: purchased BPS Bioscience
# Description: To determine the inhibitory effect of selected polyphenols on the activity of recombinant hACE2 protein, an ACE2 Activity Screening Assay Kit (BPS Bioscience, San Diego, Calif.) was used according to the manufacturer's protocol. […] The positive control was a sample containing only ACE2 enzyme, and the negative control was a sample containing ACE2 enzyme and 10% DMSO. ACE2 fluorogenic substrate (10 μM) was added to each well, and the plate was incubated for 1 h at RT. The fluorescence was measured at Ex/Em=535/595 nm wavelength using a spectrofluorometer (Tecan Group Ltd, Switzerland). […] Results are expressed as a percentage of polyphenol-free control (mean+/−SD, n=6).
# The positive control contained only ACE2 enzyme, and the negative control additionally contained 10% DMSO.
# [9] = target: RBD of SARS-CoV-2 spike protein (Severe acute respiratory syndrome coronavirus 2, UniProt P0DTC2); conditions: literature computational study; cited from earlier work
# hACE2 [10] = target: T5, hACE2; conditions: literature computational study (Jena et al.); cited from earlier work
# [11] = system: lysosomal/endosomal pH in A549 cells; assay: Endosomal/lysosomal pH assay; assay type: cell-based, human; conditions: 5.0-25 μg/ml; control approximately pH=5.0
# Description: Endosomal/lysosomal pH assay: Endosomal pH was assessed according to a previously reported protocol [54]. […] Acridine orange (Thermo Fisher Scientific, Waltham, Mass.) was added directly to each dish to reach a final concentration of 6.6 μg/ml. The cells were additionally incubated at 37° C. with 5% CO2 for 20 min. and washed three times with 1×PBS. Live Cell Imaging Solution (LCIS) (Thermo Fisher Scientific, Waltham, Mass.) was added to the wells, and images were taken using a Zeiss Axio Observer A1 fluorescence microscope with a 40× magnification. […] Results are expressed as a percentage of polyphenol-free control (mean+/−SD, n=3).
# A concurrent experiment was performed using pHrodo™ Green AM Intracellular pH Indicator (Thermo Fisher Scientific, Waltham, Mass.) according to the manufacturer's protocol. […] The plate was incubated for 30 min. at 37° C., washed again with LCIS, and fluorescence was measured at Ex/Em=509/533 nm wavelength using a spectrofluorometer (Tecan Group Ltd, Switzerland). pH identification was performed based on standard curve, using an Intracellular pH Calibration Buffer Kit according to the manufacturer's protocol (Thermo Fisher Scientific, Waltham, Mass.). […] Next, the fluorescence was measured Ex/Em=509/533 nm wavelength. […]
compound,measurement,setting,value
Oc1ccc2c(c1)OC[C@]1(O)Cc3cc(O)c(O)cc3[C@H]21 [Brazilin],Binding with RBD (% of control ± SD),[1],100 ± 0.1 % of control
same,decrease of cell-cell fusion,[2],40%
same,effect on ACE2 activity,[3],no effects
same,inhibition of recombinant hTMPRSS2 activity,recombinant hTMPRSS2,20-30%
same,effect on recombinant cathepsin L,[4],"minor, not significant effect"
same,decrease of cathepsin L activity in cell lysates,[5],15%
same,cathepsin L expression at protein level,[6],neither brazilin nor curcumin down-regulated cathepsin L expression
same,direct binding to ACE2 receptor,"hACE2 [7]; polyphenols 5.0-25 μg/ml, PB 5.0 and 10 μg/ml",does not bind to ACE2 directly
same,effect on ACE2 activity,hACE2 [8],no effects
COc1cc(/C=C/C(=O)CC(=O)/C=C/c2ccc(O)c(OC)c2)ccc1O [Curcumin],Binding with RBD (% of control ± SD),[1],100 ± 0.2 % of control
same,cathepsin L expression at protein level,[6],neither brazilin nor curcumin down-regulated cathepsin L expression
same,binding energy ΔG to RBD / viral spike protein,[9],-10.5 kcal/mol
same,binding energy to hACE2,hACE2 [10],-8.9 kcal/mol
same,concentration at which binding efficacy to ACE2 was shown,hACE2 [7],10 to 25 µg/mL
Oc1ccc(/C=C/c2cc(O)cc(O)c2)cc1 [Trans-resveratrol],Binding with RBD (% of control ± SD),[1],22.3 ± 2.9 % of control
O=c1oc2cc(O)ccc2c2ccc(O)cc12 [Urolithin A],Binding with RBD (% of control ± SD),[1],31.1 ± 4.6 % of control
CC(=O)c1c(O)c(C)c(O)c2c1OC1=CC(=O)C(C(C)=O)C(=O)C12C (stereo not shown) [Usnic acid],Binding with RBD (% of control ± SD),[1],22.0 ± 3.4 % of control
(−)-gallocatechin gallate,Binding with RBD (% of control ± SD),[1],75.4 ± 5.6 % of control
"Theaflavin-3,3′-digallate",decrease of cathepsin L expression,[6]; starting from 10 μg/ml,about 20%
same,lysosomal/endosomal pH reached,[11],5.5-6.0
catechin [cathechin],binding energy ΔG to RBD / viral spike protein,[9],-7.9 kcal/mol
same,binding energy to hACE2,hACE2 [10],-7.8 kcal/mol
